Values of other authors in patent publication US20250213563A1, “SUBSTITUTED PYRIMIDIN-4(3H)-ONES FOR USE IN TREATING CANCER” (NAVIRE PHARMA, INC., priority 2021, published 2025).
Entries after “also recorded” stand apart in the source; their conditions may differ.

What was measured:
pERK in tumors = details: at ≥20 mg daily; cited from earlier work
[1] = cited from earlier work
DUSP6 mRNA in tumors = details: at ≥20 mg daily; cited from earlier work

Row | SMILES | Human PD: pERK inhibition in half of tumors analyzed (pERK in tumors) | most common AEs ([1]; Human DLTs) | patients in whom AEs lead to dose interruption ([1]; Human DLTs) | Human Half life ([1]; comparator SHP2 inhibitors) | Human PD: DUSP6 mRNA inhibition in tumors (DUSP6 mRNA in tumors) | Human DLTs ([1]; comparator SHP2 inhibitors)
1 | Cc1nc(N2CCC3(CC2)CO[C@@H](C)[C@H]3N)c(CO)nc1Sc1ccnc(N)c1Cl [RMC-4630] | >30% pERKinhibition | patients; diarrhea,; also recorded: thrombocytopenia,; also recorded: edema are most | interruption in 50% | 28 to 33 h |  | 
2 | C[C@@H]1OCC2(CCN(c3cnc(Sc4ccnc(N)c4Cl)c(N)n3)CC2)[C@@H]1N [TNO-155] |  |  |  | 35 h | >50% DUSP6 mRNA | LVEF decrease, liver; also recorded: enzyme elevation,; also recorded: diarrhea
